pIC50: −log10 of the molar value.

In general, logD refers to lipophilicity at a set pH, counting ionised and neutral species. Higher therefore signals a more lipophilic compound. One may read the pIC50 as −log10 of the IC50, conventionally taken in molar units. Low values mean a large IC50, high ones a small IC50. A word on the ED50: it is the dose that gives a 50% effect, or the effect in half of the subjects. Higher therefore signals a need for a large dose. A word on the logP: it is the decadic logarithm of the partition coefficient of the neutral form, usually between octanol and water. Lower therefore signals lower lipophilicity.

In data set [1] the test system is Rattus norvegicus. The experiment in a line: Drug elimination in Wistar rat assessed as [3H]labeled drug level at 54 umol/kg, iv after 24 hrs. The settings on record: in vivo. The class given is ADME, organism-based.
The nature of data set [2]: Biodistribution in cannulated Wistar rat bile assessed as [3H]labeled drug level at 54 umol/kg, iv after 5 hrs. The following applies: in vivo. The class given is ADME, organism-based.
The nature of data set [3]: Distribution coefficient, log D at pH 7.4. The following applies: octanol/water.
The test system of data set [4] is Plasmodium falciparum. The data set is described as follows: Antimalarial activity against chloroquine-resistant Plasmodium falciparum TM6. The class given is functional, organism-based.
Data set [5] deals with Plasmodium falciparum. The experiment in a line: Antimalarial activity against chloroquine-sensitive Plasmodium falciparum HB3. The class given is functional, organism-based.
In data set [6] the test system is Kidney. The experiment in a line: Biodistribution in Wistar rat kidney assessed as [3H]labeled drug level at 54 umol/kg, iv after 24 hrs. The class given is ADME, organism-based. The following applies: in vivo.
The next data set concerns Plasmodium berghei. The data set is described as follows: Antimalarial activity as reduced parasitaemia against Plasmodium berghei ANKA infected CD1 mice (Mus musculus) perorally dosed daily over 4 days. The class given is functional. The following applies: po, 96 h.
Data set [7] concerns Rattus norvegicus. The experiment in a line: Metabolic stability in Wistar rat assessed as 2-[2-Chloro-5-(7-chloro-quinolin-4-ylamino)-benzylamino]-2-methyl-propionic acid level at 54 umol/kg, iv administered as [3H]labeled drug after 5 hrs. The data set is classed as ADME, organism-based. The settings on record: in vivo.
The test system of data set [8] is Liver. The experiment in a line: Biodistribution in cannulated Wistar rat liver assessed as [3H]labeled drug level at 54 umol/kg, iv after 5 hrs. The following applies: in vivo. The data set is classed as ADME, organism-based.
For data set [9], the target named is β-hematin formation (no protein target). The experiment in a line: Inhibition of beta-hematin formation as molar equivalent relative to hemin causing blockade in BHIA.
Data set [10] concerns Rattus norvegicus. The experiment in a line: Metabolic stability in Wistar rat assessed as [3-(tert-Butylamino-methyl)-4-chloro-phenyl]-(7-chloro-1-oxy-quinolin-4-yl)-amine level at 54 umol/kg, iv administered as [3H]labeled drug after 5 hrs. The class given is ADME, organism-based. The settings on record: in vivo.
Another data set deals with Lung. The experiment in a line: Biodistribution in Wistar rat lung assessed as [3H]labeled drug level at 54 umol/kg, iv after 24 hrs. The class given is ADME, organism-based. The following applies: in vivo.
Data set [11] is described as follows: Toxicity against Wistar rat hepatocytes after 6 hrs by trypan blue exclusion method. The data set is classed as cell-based, Hepatocyte. The following applies: read-out: TC50.
Data set [12] is described as follows: Drug metabolism in cannulated Wistar rat assessed as biliary excretion of [3H]labeled drug level at 54 umol/kg, iv after 5 hrs. The data set is classed as ADME, organism-based, Bile. The settings on record: in vivo.
Data set [13] relates to Liver. The experiment in a line: Biodistribution in Wistar rat liver assessed as [3H]labeled drug level at 54 umol/kg, iv after 24 hrs. The class given is ADME, organism-based. The following applies: in vivo.
Data set [14] concerns Plasmodium falciparum. The data set is described as follows: Antimalarial activity against chloroquine-sensitive Plasmodium falciparum 3D7. The class given is functional, organism-based.
A short description of data set [15]: Therapeutic index, ratio of IC50 for Wistar rat hepatocytes to IC50 for Plasmodium falciparum HB3. The class given is cell-based, Hepatocyte.
Data set [16] deals with Rattus norvegicus. The experiment in a line: Metabolic stability in Wistar rat assessed as 2-Chloro-5-(7-chloro-quinolin-4-ylamino)-benzoic acid level at 54 umol/kg, iv administered as [3H]labeled drug after 5 hrs. The data set is classed as ADME, organism-based. The settings on record: in vivo.
The test system of data set [17] is Kidney. The experiment in a line: Biodistribution in cannulated Wistar rat kidney assessed as [3H]labeled drug level at 54 umol/kg, iv after 5 hrs. The data set is classed as ADME, organism-based. The following applies: in vivo.
The nature of data set [18]: Partition coefficient, log P of the compound. The settings on record: octanol/water. The data set is classed as physicochemical.

In the case of `CC(C)(C)NCc1cc(Nc2ccnc3cc(Cl)ccc23)ccc1Cl`, the Activity with Rattus norvegicus [1] stood at 61%; in data set [2], 14.9%; with Rattus norvegicus [7] it was 60.76%; in the data set with Rattus norvegicus [10], 4.52%; in data set [12], 14.88%; in the data set with Rattus norvegicus [16] it was 11.39%. In data set [3], this compound showed a logD of 3. Besides, the negative-log IC50 (pIC50) in the data set with Plasmodium falciparum [4] is 8.35; in the data set on Plasmodium falciparum [5] it was 8.09; in the data set with Plasmodium falciparum [14], 8.11. Moreover, the Drug uptake in the data set with Kidney [6] was 0.31 %ID; with Liver [8], 12.41%; with Lung, 0.25 %ID; in the data set on Liver [13] it was 1.87 %ID; in the data set on Kidney [17], 5.43 %ID. The same compound returned an ED50 in the data set on Plasmodium berghei of 13.4 mg/kg. The same compound gave an ED90 in the data set with Plasmodium berghei of 27.3 mg/kg. The IC50 in data set [9] is 1.66 molar ratio. Moreover, the CC50 at 6 h in data set [11] worked out at 120000 nM. Moreover, the selectivity ratio in data set [15] worked out at 11900. The same compound gave a lipophilicity (logP) in data set [18] of 5.59.

These data come from ChEMBL document CHEMBL1153384, “Synthesis, antimalarial activity, and preclinical pharmacology of a novel series of 4'-fluoro and 4'-chloro analogues of amodiaquine. Identification of a suitable "back-up" compound for N-tert-butyl isoquine” (J Med Chem, 2009).
